Results taken from patent US4698350A, “1-ethyl-6-fluoro-1,4-dihydro- 7-(2,6-dimethyl-4-pyridinyl)-4-oxo-3-quinolinecarboxylic acid and antibacterial use thereof” (Sterling Drug Inc., priority 1984, dated 1987).
Where a name gives a salt, the structure may show the parent alone. Read-outs that look alike come from different tables or passages of the source.

Legend:
S. aureus 10-81 = experiment: In vitro antibacterial MIC/MBC test; type: cell-based; details: Staphylococcus aureus, 1081, S. aureus 10-81
Experimental: (§1) Win 52,522 and Win 35,439 were solubilized in 0.1 ml of 0.5 N NaOH/mg of compound and diluted in sterile distilled water to 160 mcg/ml. Vancomycin and methicillin were solubilized in sterile distilled water to 1250 mcg/ml of base compound. The stock solutions were sterilized by filtration through membrane filters with a 0.45 μm pore size.
(§2) The bacterial cultures listed in Table I (hereinbelow) were grown overnight at 37° C. in MHB for all cultures except the Streptococcus strains. These were grown in BHI+10% NHS. The overnight broth cultures were adjusted to an optical density of 0.10 (650 nm, B L Spectronic 20) in sterile distilled water and subsequently diluted to 6.7×10^6 cells/ml in MHB or BHI+1% NHS.
(§3) Serial two-fold dilutions of the compound solutions were prepared in MHB (or in BHI+1% NHS for tests with Streptococci) and dispensed into 96-well microtiter trays in a volume of 0.1 ml/well using a Sandy Springs (Bellco Glass Co.) dispenser. The trays were then inoculated with 0.0015 ml of a suspension containing 6.7×10^6 cells/ml of the appropriate inoculum using a MIC-2000 inoculator (Dynatech Corp.) resulting in a final inoculum of approximately 1×10^4 cells/well or 1×10^5 cells/ml. The trays were incubated at 37° C. for 18-20 hours and the minimal inhibitory concentration (MIC), defined as the lowest concentration of compound to inhibit visible bacterial growth, was recorded.
(§4) After the MIC values were recorded, the contents in the microtiter trays were thoroughly mixed on a Bellco Mini-orbital Shaker (Bellco Glass Co.) for 3 min. at a setting of 8. A portion (0.0015 ml) from each well was then transferred via an MIC-2000 inoculator to plates containing MHA or BHI agar+10% NHS. The plates were incubated at 37° C. for 18-20 hrs. The minimal bactericidal concentration (MBC), defined as the lowest concentration of compound that prevented the formation of a recognizable colony on the agar surface, was recorded.

S. aureus 13-8-A = experiment: In vitro antibacterial MIC/MBC test; type: cell-based; details: Staphylococcus aureus, 138A, S. aureus 13-8-A
Experimental: as §1, §2, §3, §4

S. aureus S-500 = experiment: In vitro antibacterial MIC/MBC test; type: cell-based; details: Staphylococcus aureus, S500, S. aureus S-500
Experimental: as §1, §2, §3, §4

S. aureus Smith = experiment: In vitro antibacterial MIC/MBC test; type: cell-based; details: Staphylococcus aureus, S. aureus Smith
Experimental: as §1, §2, §3, §4

S. aureus VA16951 = experiment: In vitro antibacterial MIC/MBC test; type: cell-based; details: Staphylococcus aureus, S. aureus VA16951
Experimental: as §1, §2, §3, §4

S. epidermidis (12228) = experiment: In vitro antibacterial MIC/MBC test; type: cell-based; details: Staphylococcus epidermidis, ATCC12228, S. epidermidis ATCC No. 12228
Experimental: as §1, §2, §3, §4

S. epidermidis 2-1-B = experiment: In vitro antibacterial MIC/MBC test; type: cell-based; details: Staphylococcus epidermidis, 21B, S. epidermidis 2-1-B
Experimental: as §1, §2, §3, §4

S. faecalis 4510 = experiment: In vitro antibacterial MIC/MBC test; type: cell-based; details: Enterococcus faecalis, S. faecalis 4510
Experimental: as §1, §2, §3, §4

S. aureus = experiment: In vitro MIC/MBC summary (Table II); type: cell-based; details: Staphylococcus aureus
Experimental: as §1, §2, §3, §4

Streptococcus sp. = experiment: In vitro MIC/MBC summary (Table II); type: cell-based; details: 9 Streptococcus sp. strains
Experimental: as §1, §2, §3, §4

S. edidermidis = experiment: In vitro MIC/MBC summary (Table II); type: cell-based, S. epidermidis; details: Staphylococcus epidermidis, 5 S. edidermidis strains
Experimental: as §1, §2, §3, §4

[1] = system: Staphylococcus aureus 39881 (Methicillin-resistant); experiment: Mouse protection test, S. aureus 39881 (methicillin-resistant) infection; type: in vivo, ICR mice; Staphylococcus aureus; details: for Survivors/Total: two doses
Experimental: ICR mice, female, 18-20 grams each.
Solutions of Win 52,522 and Win 35,439 were prepared by dissolving the appropriate weight of drug in 0.3 to 0.4 ml of 1 N NaOH and then bringing the solutions to the desired volume with distilled water. Methicillin and vancomycin were dissolved directly in distilled water.
The culture was streaked onto three Brain Heart Infusion Agar plates and incubated 16 hours at 37° C. The cells were washed off each plate with five ml of saline and the cell suspension was shaken with glass beads for two minutes on a paint shaker. The suspension was diluted with saline so that a […] gave a 44% T reading on a B+L Spectronic 20 (650 nm) calibrated with saline. The stock suspension was diluted 1:24 (10 ml stock suspension+230 ml 5% mucin) to obtain the test inoculum containing 1.55×10^9 cells/ml.
Mice were inoculated intraperitoneally with 0.5 ml of the bacterial test inoculum.
Mice were medicated twice: at one-half and four hours postinfection. The drugs were administered by both subcutaneous (0.2 ml) and oral (0.5 ml) routes.
Deaths were recorded daily for seven days for all tests. Fifty percent protective dose values (PD50's) were calculated using probit analysis [SAS Users Guide: Statistics, 1982 Edition, SAS Institute, Inc., Cary, N.C.].

SMILES: COc1cccc(OC)c1C(=O)N[C@@H]1C(=O)N2[C@@H]1SC(C)(C)[C@@H]2C(=O)O [Methicillin, 6-(2,6-dimethoxybenzamido)penicillanic acid sodium salt]
- MBC (S. aureus 10-81; read-out: MBC): 16 µg/mL
- MIC (S. aureus 10-81; read-out: MIC): 8 µg/mL
- MBC (S. aureus 13-8-A; read-out: MBC): 2 µg/mL
- MIC (S. aureus 13-8-A; read-out: MIC): 1 µg/mL
- MBC (S. aureus S-500; read-out: MBC): 32 µg/mL
- MIC (S. aureus S-500; read-out: MIC): 8 µg/mL
- MBC (S. aureus Smith; read-out: MBC): 1 µg/mL
- MIC (S. aureus Smith; read-out: MIC): 1 µg/mL
- MBC (S. aureus VA16951; read-out: MBC): 8 µg/mL
- MIC (S. aureus VA16951; read-out: MIC): 4 µg/mL
- MBC (S. epidermidis (12228); read-out: MBC): 4 µg/mL
- MIC (S. epidermidis (12228); read-out: MIC): 4 µg/mL
- MBC (S. epidermidis 2-1-B; read-out: MBC): 2 µg/mL
- MIC (S. epidermidis 2-1-B; read-out: MIC): 1 µg/mL
- MBC (S. faecalis 4510; read-out: MBC): 64 µg/mL
- MIC (S. faecalis 4510; read-out: MIC): 64 µg/mL
- MIC50 (S. aureus): 2 µg/mL
- MIC90 (S. aureus): 8 µg/mL
- MBC (S. aureus; read-out: MBC 90%): > 64 µg/mL
- MIC (S. aureus; read-out: MIC Range): 1 to 125 µg/mL
- MBC (Streptococcus sp.; read-out: MBC 50%): 0.125 µg/mL
- MBC (Streptococcus sp.; read-out: MBC 90%): 64 µg/mL
- MIC50 (Streptococcus sp.; read-out: MIC 50%): 0.25 µg/mL
- MIC90 (Streptococcus sp.; read-out: MIC 90%): 64 µg/mL
- MBC (S. edidermidis; read-out: MBC 50%): 4 µg/mL
- MBC (S. edidermidis; read-out: MBC 90%): 4 µg/mL
- MBC (S. edidermidis; read-out: MBC Range): 2 to 4 µg/mL
- MIC50 (S. edidermidis; read-out: MIC 50%): 2 µg/mL
- MIC90 (S. edidermidis; read-out: MIC 90%): 4 µg/mL
- MIC (S. edidermidis; read-out: MIC Range): 1 to 4 µg/mL
- Survivors/Total ([1]; 25 mg/kg sc): 0/10
- Survivors/Total ([1]; 50 mg/kg sc): 0/10
- Survivors/Total ([1]; 100 mg/kg sc): 0/10
- ED50 ([1]; Staphylococcus aureus, 168 h, sc, two doses one-half and four hours postinfection, read-out: Protective Dose 50% (95% Confidence Limits)): > 100 mg/kg
